# According to the supplement of paper PMC8671470:
# Experiments:
# Assay in all cases: cell viability (% survival relative to DMSO control, bortezomib = 0%); higher = less cytotoxic
# Details in all cases: 72 h
# [1] = tested on: BV-173
# Summary of the method: (§1)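 Fifteen myeloid leukaemia cell lines were exposed to compounds at 1, 10, 100, 1000 or 10000 nM in 384-well plates for 72 h at 37 °C and 5% CO2. Viability was read by CellTiter-Glo luminescence and normalised, with vehicle as 100% and a 10 µM positive control as 0%. Values are percent survival averaged over duplicates.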
# [2] = tested on: KCL-22
# Summary of the method: as §1
# [3] = tested on: SHI-1
# Summary of the method: as §1
# [4] = tested on: LAMA-84
# Summary of the method: as §1
# [5] = tested on: HL-60
# Summary of the method: as §1
# [6] = tested on: ML-2
# Summary of the method: as §1
# [7] = tested on: KG-1
# Summary of the method: as §1
# [8] = tested on: NOMO-1
# Summary of the method: as §1
# [9] = tested on: HEL
# Summary of the method: as §1
compound,measurement,setting,value
O=C(c1c2ccccc2cc2ccccc12)N1CCC(N2CCC[C@@H](C(=O)N3CCOCC3)C2)CC1,cell viability,[1]; 1 nM,111%
same,cell viability,[1]; 10 nM,108%
same,cell viability,[1]; 100 nM,118%
same,cell viability,[1]; 1000 nM,86.5%
same,cell viability,[1]; 10000 nM,70.9%
same,cell viability,[2]; 1 nM,107%
same,cell viability,[2]; 10 nM,108%
same,cell viability,[2]; 100 nM,118%
same,cell viability,[2]; 1000 nM,99.6%
same,cell viability,[2]; 10000 nM,78.3%
same,cell viability,[3]; 1 nM,110%
same,cell viability,[3]; 10 nM,96.3%
same,cell viability,[3]; 100 nM,107%
same,cell viability,[3]; 1000 nM,101%
same,cell viability,[3]; 10000 nM,90%
same,cell viability,[4]; 1 nM,109%
same,cell viability,[4]; 10 nM,108%
same,cell viability,[4]; 100 nM,105%
same,cell viability,[4]; 1000 nM,94.5%
same,cell viability,[4]; 10000 nM,86.5%
same,cell viability,[5]; 1 nM,104%
same,cell viability,[5]; 10 nM,69.9%
same,cell viability,[5]; 100 nM,118%
same,cell viability,[5]; 1000 nM,59.2%
same,cell viability,[5]; 10000 nM,41.5%
same,cell viability,[6]; 1 nM,126%
same,cell viability,[6]; 10 nM,118%
same,cell viability,[6]; 100 nM,119%
same,cell viability,[6]; 1000 nM,98.5%
same,cell viability,[6]; 10000 nM,86.4%
same,cell viability,[7]; 1 nM,110%
same,cell viability,[7]; 10 nM,102%
same,cell viability,[7]; 100 nM,111%
same,cell viability,[7]; 1000 nM,94%
same,cell viability,[7]; 10000 nM,85.6%
same,cell viability,[8]; 1 nM,106%
same,cell viability,[8]; 10 nM,108%
same,cell viability,[8]; 100 nM,104%
same,cell viability,[8]; 1000 nM,99.6%
same,cell viability,[8]; 10000 nM,95.2%
same,cell viability,[9]; 1 nM,106%
same,cell viability,[9]; 10 nM,108%
same,cell viability,[9]; 100 nM,110%
same,cell viability,[9]; 1000 nM,77.3%
same,cell viability,[9]; 10000 nM,94.7%
